Reference: the METLIN SMRT retention time set (Domingo-Almenara et al. 2019)

Assay: gradient 5% acetonitrile 3 min, to 50% in 2 min, to 85% in 15 min, held 3 min, 100 µL/min
Settings: column: Zorbax Extend-C18 2.1 x 50 mm; eluents: water / acetonitrile, 0.1% formic acid
Procedure, shortened: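 Using water and acetonitrile that each contained 0.1% formic acid, mixtures of ~100 pure standards were separated at 100 μL/min on a Zorbax Extend-C18 column (2.1 × 50 mm, 1.8 μm). The HPLC fed a quadrupole time-of-flight mass spectrometer working in positive and negative ionization mode, with dead and dwell volumes of 40 μL and 900 μL. Data were acquired over 3 months. Retention time was read from computationally picked adduct peaks after manual inspection of each.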

Row | RP-LC retention time [s] | Compound
1 | 604 | CCc1cc(N2CCN(C(=O)c3ccccc3)CC2)nc2nnc(C)n12
2 | 1010 | CCc1cccc(C)c1Nc1c(-c2ccc(F)cc2)nc2cnccn12
3 | 931 | CCCNC(=O)c1cn(-c2ccc(-c3nc(C(C)(C)C)no3)cn2)cn1
4 | 848 | CCCc1noc(-c2ccc3nnc(CC(=O)Nc4ccc(F)cc4)n3c2)n1
5 | 1100 | Cc1ccc(NC(=O)Nc2nccn(-c3ccc(Br)cc3)c2=O)cc1C
6 | 676 | COc1ccc(CNC(=O)Cc2cn(C)c3ncccc23)c(OC)c1
7 | 852 | CCCNC(=O)CCc1nc2ccccc2n(CC(=O)Nc2ccc(CC)cc2)c1=O
8 | 832 | COC(=O)C1=CN(c2cc(F)ccc2C)c2ccccc2S1(=O)=O
9 | 969 | COc1cccc(-n2c(=O)c3sccc3n(Cc3nc(-c4ccccc4Cl)no3)c2=O)c1
10 | 750 | COc1ccc(CCNC(=O)CSC2=Nc3ccc(C)cc3OC2)cc1OC
11 | 822 | CCN1c2cc(C(=O)NCc3cccs3)ccc2C(=O)N2CCCCC21 (centres undefined)
12 | 753 | O=C(CN1CCC(c2nc(-c3cccs3)no2)CC1)Nc1ccccc1C(F)(F)F
13 | 953 | Cc1cccc(Cn2c(=O)n(CCNC(=O)C3(c4ccccc4)CC3)c3ncccc32)c1
14 | 888 | CC(=O)NCc1ccc(-c2noc(-c3cc(Cl)ccc3F)n2)s1
15 | 587 | CCc1cc(=O)n(CC(=O)Nc2ccc(N(C)C)cc2)c(N2CCOCC2)n1
16 | 1170 | CCc1nnc(-c2ccc3ccn(CC(=O)NCCc4sccc4C)c3c2)o1
17 | 747 | COc1ccc2cccc(C(=N)c3ccc(C)c4c3CCC4)c2c1

Row | RP-LC retention time [s] | Compound
18 | 1030 | Cc1ccccc1-c1noc(Cn2c(=O)n(-c3ccccc3F)c(=O)c3sccc32)n1
19 | 792 | O=C(Cn1nc2c3cc(-c4ccccc4)nn3ccn2c1=O)NCc1ccco1
20 | 644 | CCNC(=O)C1CCCN(c2nc3ncn(CC(=O)Nc4ccccc4)c(=O)c3s2)C1 (centres undefined)
21 | 829 | CC(C(=O)NCCc1c[nH]c2ccccc12)n1c2ccccc2c2cnn(C)c(=O)c21 (centres undefined)
22 | 818 | CCn1cc(CNC(=O)c2cc(-c3ccc4c(c3)OCO4)nc3ccccc23)c(C)n1
23 | 943 | CCCCn1cc(S(=O)(=O)Nc2ccc(C)cc2)c2cccnc21
24 | 877 | Cc1ccc(N2C(=O)CN(S(C)(=O)=O)CC2(C)C(=O)NCc2ccc(F)cc2)cc1Cl (centres undefined)
25 | 951 | COc1ccc(C(=O)Cn2nc3n(CC(C)C)c(=O)c4ccccc4n3c2=O)cc1OC
26 | 719 | O=C(NCCn1c(=O)n(Cc2ccc(F)cc2)c2cccnc21)c1ccco1
27 | 569 | CN(C)CCNC(=O)CCc1cc2ccccc2[nH]c1=O
28 | 630 | CCN(CC)CCNC(=O)c1cc2n(n1)CCCN(Cc1cccc(C)c1)C2=O
29 | 833 | CCOc1ccc(-c2csc(Nc3cc(C)ccn3)n2)cc1
30 | 692 | CCc1nnc(-c2ccc(=O)n(CC(=O)Nc3ccc(C)cc3F)c2)o1
31 | 726 | COCCCNC(=O)c1cc(-c2ccc(F)cc2)c[nH]1
32 | 696 | CCn1cc(CC(=O)Nc2ccc(OC)cc2)c2cccnc21
33 | 704 | Cc1cccn2cc(C(=O)NCc3ccccc3Cl)nc12
34 | 732 | Cc1cccc(NC(=O)CN2CCN(Cc3ccc(F)cc3)C(=O)C2=O)c1C

Continued, compound first:

Row | Compound | RP-LC retention time [s]
35 | CCOC(=O)c1[nH]c(C)c(CN(Cc2ccco2)C(=O)Nc2ccccc2)c1C | 957
36 | O=c1c2scc(-c3cccc(F)c3)c2ncn1Cc1ccc(Br)cc1 | 1170
37 | CCOC(=O)N1CCN(c2ncc(C(=O)Nc3ccccc3)c(N)n2)CC1 | 692
38 | O=C(NCC1(O)CCc2ccccc21)Nc1ccccc1Cl (centres undefined) | 762
39 | Cc1ccc(Nc2c(-c3ccc(Cl)cc3)nc3cnccn23)c(Br)c1 | 1170
40 | CCN(CC)CCNC(=O)C1CCN(c2nc3cccnc3s2)CC1 | 573
41 | CCn1c(=O)oc2cc(S(=O)(=O)N3CCC(CC(=O)N4c5ccccc5CC4C)CC3)ccc21 (centres undefined) | 1010
42 | Cc1nc(NC(=O)C2CCCN(c3ccc(-n4cccn4)nn3)C2)sc1C (centres undefined) | 699
43 | Cc1ccc(-n2c(CN3CCN(C(=O)NC4CCCC4)CC3)nc3cccnc32)cc1 | 663
44 | COc1ccc(-c2noc(-c3nnn4c3COC(c3ccc(F)cc3)C4)n2)cc1 (centres undefined) | 1120
45 | O=C(CC1CCN(C(=O)NCCc2ccccc2)CC1)N1CCCCC1 | 759
46 | COc1ccc(OC)c(CCN2CC(=O)N(c3cccc(C)c3)[C@@H]3CS(=O)(=O)C[C@@H]32)c1 | 848
47 | O=C(c1ccc(=O)oc1)N1CCN(Cc2nc(-c3ccccc3)cs2)CC1 | 637
48 | CC1CCN(C2=NCCN2C(=O)c2ccc(F)cc2)CC1 | 661
49 | Cc1ccn2c(C(C)O)nnc2c1 (centres undefined) | 574
50 | Cc1ccn2cc(C(=O)N3CCN(c4cccc(Cl)c4)CC3)nc2c1 | 692
51 | O=C(NCc1ccc(F)cc1)C1CCN(c2cnc3nccnc3c2)CC1 | 769
52 | CCOc1ccc(NS(=O)(=O)c2cc(C(=O)Nc3cccc(Cl)c3)n[nH]2)cc1 | 916
53 | O=C(NCCC1CCN(C(=O)Nc2ccc(F)cc2)CC1)c1ccoc1 | 716
54 | O=C(C1CCN(c2nnc(-c3ccccc3)o2)CC1)N1CCN(c2ccccn2)CC1 | 602
55 | COC(=O)C1=CN(c2ccc(F)c(F)c2)c2cc(F)ccc2S1(=O)=O | 860
56 | CN1C(=O)CCc2cc(NS(=O)(=O)c3ccc(Cl)c(Cl)c3)ccc21 | 1040
57 | O=C(c1ccc(-c2ccnc(N3CCCCC3)n2)cc1)N1CCC2(CC1)OCCO2 | 882
58 | Cc1nn(-c2ccc(N3CCCCC3)nn2)c(C)c1CCC(=O)N1CCN(c2ncccn2)CC1 | 656
59 | c1ccc(-c2nc(-c3ccncc3)no2)c(OC2CCN(Cc3ccsc3)C2)c1 (centres undefined) | 679
60 | CC(=O)OCCn1c([N+](=O)[O-])cnc1/C=[N+](\[O-])C1CCCCC1 | 753
61 | CCN(C(=O)CN1C(=O)NC(c2ccc(Cl)cc2)C2=C1COC2=O)c1ccccc1 (centres undefined) | 834
62 | CC1CCN(S(=O)(=O)N2CCC(C(=O)N3CCC(Cc4nncn4CC4CC4)CC3)CC2)CC1 | 751

Row | Compound | RP-LC retention time [s]
63 | CCC(C)NC(=O)N1CC(Oc2ccccc2-c2nc(-c3ccccc3)no2)C1 (centres undefined) | 999
64 | CCCC(=O)Nc1ccc2nc(N3CCN(c4ccc(OC)cc4)CC3)cc(C(=O)O)c2c1 | 633
65 | Cn1cnc(S(=O)(=O)N2CCC(C(=O)NCc3ccc(F)cc3)CC2)c1 | 670
66 | CCOC(=O)c1nc(NCC2CCN(Cc3ccccc3Cl)CC2)c2ccccc2n1 | 1060
67 | CCCS(=O)(=O)N1CC[C@@H]2COCCN(Cc3ccccc3)[C@@H]2C1 | 626
68 | COc1ccc(N2C(=O)C3N=NN(Cc4nc(-c5ccc(Br)cc5)no4)C3C2=O)cc1 (centres undefined) | 1020
69 | COC(=O)c1cccc(NC(=O)C2CCCN(c3nnc4ccc(Cl)cn34)C2)c1 (centres undefined) | 735
70 | CC1CCN(S(=O)(=O)c2ccc(C(=O)Nc3nc4c(s3)CCc3ccccc3-4)cc2)CC1 | 1290
71 | Nc1nc(=O)n(C2CS[C@H](CO)O2)cc1F (some centres undefined) | 571
72 | CCOC(=O)C1CCN(c2cc3c(cc2NC(=O)C2CCCCC2)n(C)c(=O)c(=O)n3C)CC1 | 906
73 | CCOC(=O)c1ccc(S(=O)(=O)NCCCn2nc(-c3ccncc3)ccc2=O)cc1 | 592
74 | O=C(NC1CC1)C1CCN(c2nc3ccsc3c(=O)n2Cc2ccccc2)CC1 | 741
75 | O=C(CN1CCN(c2ccc(F)c(F)c2)C1=O)NC1CCS(=O)(=O)C1 (centres undefined) | 636
76 | O=C(Cn1cnc2cc3c(cc21)OCCO3)Nc1ccc2c(c1)OCCCO2 | 622
77 | CCCOc1nc2ccccc2nc1N1CCCC(C(=O)Nc2ccc(OC)cc2OC)C1 (centres undefined) | 1280
78 | Cc1ccc(NC(=O)C2CCCN(c3cn[nH]c(=O)c3)C2)cc1 (centres undefined) | 679
79 | O=C(NCc1ccc(F)cc1)Nc1cccc(-c2ccc(N3CCOCC3)nn2)c1 | 674
80 | O=c1ccc(N2CCC(NS(=O)(=O)c3ccc(F)c(F)c3)CC2)nn1CC1CC1 | 834
81 | C[C@H]1CN(C(=O)Nc2ccc(Cl)cc2)C[C@@H]1c1nc(-c2ccncc2)no1 | 821
82 | COc1ccc(-c2noc(-c3ccc(N4CCN(c5ccccc5OC)CC4)nc3)n2)cc1 | 1310
83 | COc1ccc(NC(=O)N2CCC3(C2)C(=O)N(C)c2ccccc23)c(OC)c1 (centres undefined) | 776
84 | COc1ccc(CNS(=O)(=O)c2c(C)sc(C)c2-c2cc(C(F)(F)F)on2)cc1 | 1150
85 | N#Cc1cccc(C(=O)N2CCN3CCS(=O)(=O)N(C4CC4)C(=O)C3C2)c1 (centres undefined) | 714
86 | O=S(=O)(/C=C/c1ccccc1)NCC1CCN(Cc2ccsc2)CC1 | 586
87 | O=C(NCC1CCCO1)C1CCN(c2ccc(=O)n(-c3cccc(Cl)c3)n2)CC1 (centres undefined) | 721
88 | CCn1c(SC)nnc1-c1nn(C)c2c1CN(C(=O)CCc1ccccc1)CC2 | 798
89 | O=c1[nH]c2cc(Br)cnc2[nH]c1=O | 553
